Literature values as cited in patent publication US12728096B2, “Pharmaceutical composition comprising enzalutamide” (Synthon B.V., priority 2019, dated 2026).

Columns and labels:
[1] = pH 1 to 11

Question: What does the source list for `CNC(=O)c1ccc(N2C(=S)N(c3ccc(C#N)c(C(F)(F)F)c3)C(=O)C2(C)C)cc1F` [Enzalutamide, 4-[3-[4-cyano-3-(trifluoromethyl)phenyl]-5,5-dimethyl-4-oxo-2-sulfanylideneimidazolidin-1-yl]-2-fluoro-N-methylbenzamide]?
Answer: permeability (BCS): high permeability; solubility (BCS): low solubility; solubility in water [1]: practically insoluble
